According to patent publication US12252524B2, “GIP/GLP1 co-agonist compounds” (Eli Lilly and Company, priority 2018, dated 2025):
Numbered stars: 1 amine (or outer) side, 2 acyl side, 3 side chain; on linkers, the order of the positions; unused ones are H or OH. Square brackets hold non-standard residues; d marks the D form. Side chains are listed from the residue outwards. Peptide text beside a SMILES is read from it. * marks the point of attachment. C20 diacid = O=C(O)CCCCCCCCCCCCCCCCCCC(=O)*; C18 diacid = O=C(O)CCCCCCCCCCCCCCCCC(=O)*; αMePhe(2-F) = C[C@](N)(Cc1ccccc1F)C(=O)O; γGlu = O=C(O)[C@H](CCC(=O)[*:2])N[*:1]; 3Pal = N[C@@H](Cc1cccnc1)C(=O)O; 4Pal = N[C@@H](Cc1ccncc1)C(=O)O; αMeL = CC(C)C[C@](C)(N)C(=O)O; AEEA = NCCOCCOCC(=O)O; Aib = CC(C)(N)C(=O)O

Key:
human GIP receptor = molecular target: T1, human GIP receptor (Homo sapiens, UniProt P48546); test: [125I]-GIP binding (SPA), human GIP receptor; conditions: read-out: hGIPR Ki, nM (SEM, n)
T1 construct: expressed in transfected cells; crude membranes
T1 sequence (P48546 22-466): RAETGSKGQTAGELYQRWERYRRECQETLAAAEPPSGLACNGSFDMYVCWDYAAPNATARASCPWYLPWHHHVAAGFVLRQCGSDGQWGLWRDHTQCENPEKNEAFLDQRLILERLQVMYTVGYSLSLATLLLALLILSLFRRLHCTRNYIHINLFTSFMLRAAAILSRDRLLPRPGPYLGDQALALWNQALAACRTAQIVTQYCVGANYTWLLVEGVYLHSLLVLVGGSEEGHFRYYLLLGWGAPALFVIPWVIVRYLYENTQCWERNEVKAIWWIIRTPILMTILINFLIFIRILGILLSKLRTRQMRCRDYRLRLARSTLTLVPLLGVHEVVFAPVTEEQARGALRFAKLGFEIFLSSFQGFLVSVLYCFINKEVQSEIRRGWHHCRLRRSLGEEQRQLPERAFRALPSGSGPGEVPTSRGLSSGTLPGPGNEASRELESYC
Protocol: (§1) Two methods are used for the preparation of crude cell membranes.
(§2) Method 1: Frozen cell pellets are lysed on ice in hypotonic buffer containing 50 mM Tris HCl, pH 7.5, and Roche Complete™ Protease Inhibitors with EDTA. The cell suspension is disrupted using a glass Potter-Elvehjem homogenizer fitted with a Teflon® pestle for 25 strokes. The homogenate is centrifuged at 4° C. at 1100×g for 10 minutes. The supernatant is collected and stored on ice while the pellets are resuspended in homogenization buffer and rehomogenized as described above. The homogenate is centrifuged at 1100×g for 10 minutes. The second supernatant is combined with the first supernatant and centrifuged at 35000×g for 1 hour at 4° C. The resulting membrane pellet is resuspended in homogenization buffer containing protease inhibitors at approximately 1 to 3 mg/mL, quick frozen in liquid nitrogen and stored as aliquots in a−80° C. freezer until use.
(§3) Method 2: Frozen cell pellets are lysed on ice in hypotonic buffer containing 50 mM Tris HCl, pH 7.5, 1 mM MgCl2, Roche Complete™ EDTA-free Protease Inhibitors and 25 units/ml DNAse I (Invitrogen). The cell suspension is disrupted using a glass Potter-Elvehjem homogenizer fitted with a Teflon® pestle for 20 to 25 strokes. The homogenate is centrifuged at 4° C. at 1800×g for 15 minutes. The supernatant is collected and stored on ice while the pellets are resuspended in homogenization buffer (without DNAse I) and rehomogenized as described above. The homogenate is centrifuged at 1800×g for 15 minutes. The second supernatant is combined with the first supernatant and centrifuged an additional time at 1800×g for 15 minutes. The overall supernatant is then centrifuged at 25000×g for 30 minutes at 4° C. The resulting membrane pellet is resuspended in homogenization buffer (without DNAse I) containing protease inhibitors at approximately 1 to 3 mg/mL and stored as aliquots in a−80° C. freezer until use.
The binding buffer contains 25 mM HEPES, pH 7.4, 2.5 mM CaCl2, 1 mM MgCl2, 0.1% (w/v) bacitracin, 0.003% (w/v) TWEEN©-20, and Roche Complete™ Protease Inhibitors without EDTA. Peptides and GIP are thawed and 3 fold serially diluted in 100% DMSO (10 point concentration response curves). […] Plates are sealed and mixed on a plate shaker (setting 6) for 1 minute and read with a PerkinElmer Trilux MicroBeta© scintillation counter after 2.5 to 12 hours of incubation/settling time at room temperature.
(§4) Data are analyzed using four-parameter (curve maximum, curve minimum, IC50, Hill slope) nonlinear regression routines (Genedata Screener, version 12.0.4, Genedata AG, Basal, Switzerland). […] Values for Ki are reported as the geometric mean, with error expressed as the standard error of the mean (SEM) and n is equal to the number of independent replicates (determined in assays performed on different days). […] The Ki Ratio is a rapid indication of the apparent affinity of a peptide compared to the native control peptide. […] SEM is only calculated when n=2 or greater non-qualified results exist. Means are expressed as GeoMetric means with the standard error of the mean (SEM) and the number of replicates (n) indicated in parenthesis.

human Gcg receptor = molecular target: T2, human Gcg receptor (Homo sapiens, UniProt P47871); test: [125I]-Glucagon binding (SPA), human Gcg receptor; conditions: read-out: hGLcgR Ki, nM (SEM, n)
T2 construct: expressed in transfected cells; crude membranes
T2 sequence (P47871 26-477): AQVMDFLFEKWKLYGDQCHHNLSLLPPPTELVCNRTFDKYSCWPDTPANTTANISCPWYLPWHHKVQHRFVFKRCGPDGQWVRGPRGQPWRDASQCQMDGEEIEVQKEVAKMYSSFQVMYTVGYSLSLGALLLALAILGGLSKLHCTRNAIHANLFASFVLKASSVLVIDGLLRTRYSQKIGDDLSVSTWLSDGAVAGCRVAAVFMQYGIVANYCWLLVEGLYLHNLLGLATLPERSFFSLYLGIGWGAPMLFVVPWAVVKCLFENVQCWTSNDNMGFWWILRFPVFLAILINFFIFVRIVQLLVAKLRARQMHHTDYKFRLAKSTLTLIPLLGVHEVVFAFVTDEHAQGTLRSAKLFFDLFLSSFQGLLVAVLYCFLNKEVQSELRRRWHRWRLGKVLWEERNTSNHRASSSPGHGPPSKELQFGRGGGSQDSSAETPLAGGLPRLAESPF
Protocol: as §1, §2, §3
The human Gcg receptor binding assays are performed using a Scintillation Proximity Assay (SPA) format with wheat germ agglutinin (WGA) beads (Perkin Elmer). The binding buffer contains 25 mM 4-(2-hydroxyethyl)-1-piperazineethanesulfonic acid (HEPES), pH 7.4, 2.5 mM CaCl2, 1 mM MgCl2, 0.1% (w/v) bacitracin (Research Products), 0.003% (w/v) Polyoxyethylenesorbitan monolaurate (TWEEN©-20), and Roche Complete™ Protease Inhibitors without EDTA. […] Plates are sealed and mixed on a plate shaker (setting 6) for 1 minute and read with a PerkinElmer Trilux MicroBeta© scintillation counter after 12 hours of incubation/settling time at room temperature.
as §4

human GLP-1R = human GLP-1R (Homo sapiens, UniProt P43220); test: [125I]-GLP-1 binding (SPA), human GLP-1 receptor; design: expressed in transfected cells; crude membranes; conditions: read-out: hGLP1R Ki, (nM) (SEM, n)
Sequence of human GLP-1R (P43220 24-463): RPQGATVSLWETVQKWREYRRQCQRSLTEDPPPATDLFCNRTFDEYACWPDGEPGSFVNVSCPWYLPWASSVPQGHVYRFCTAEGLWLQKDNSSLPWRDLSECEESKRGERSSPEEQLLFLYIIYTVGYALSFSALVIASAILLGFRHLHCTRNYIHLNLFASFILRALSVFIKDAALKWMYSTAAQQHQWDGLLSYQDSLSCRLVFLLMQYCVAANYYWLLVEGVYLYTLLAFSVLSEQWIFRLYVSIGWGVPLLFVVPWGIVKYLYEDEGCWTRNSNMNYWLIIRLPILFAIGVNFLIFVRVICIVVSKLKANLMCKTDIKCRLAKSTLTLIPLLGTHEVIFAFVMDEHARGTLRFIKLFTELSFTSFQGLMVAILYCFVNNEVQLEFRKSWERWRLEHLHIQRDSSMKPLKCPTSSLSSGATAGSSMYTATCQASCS
Protocol: as §1, §2, §3
The binding buffer contains 25 mM HEPES, pH 7.4, 2.5 mM CaCl2, 1 mM MgCl2, 0.1% (w/v) bacitracin, 0.003% (w/v) TWEEN©-20, and Roche Complete™ Protease Inhibitors without EDTA.
as §4

[1] = molecular target: T3, gastric inhibitory peptide receptor (GIPR) (Homo sapiens, UniProt P48546); test: cAMP pharmacological functional assay in presence of casein, hGIPR; format: cell-based; conditions: HEK293 cells expressing hGIPR, 0.1% Casein, geometric mean; read-out: hGIPR cAMP Rel EC50 nM (SEM, n)
T3 sequence (P48546 22-466): T1 sequence (P48546 22-466)

[2] = molecular target: human GLP-1 receptor (GLP-1R) (Homo sapiens, UniProt P43220); test: cAMP pharmacological functional assay in presence of casein, hGLP-1R; format: cell-based; conditions: HEK293 cells expressing hGLP-1R, 0.1% Casein, geometric mean; read-out: hGLP1R cAMP Rel EC50 nM (SEM, n)
Sequence of human GLP-1 receptor (GLP-1R) (P43220 24-463): as above

SMILES	Ki (human GIP receptor) [nM]	Ki (human Gcg receptor) [nM]	Ki (human GLP-1R) [nM]	EC50 [1] [nM]	EC50 [2] [nM]
CC[C@H](C)[C@H](NC(=O)[C@H](CC(C)C)NC(=O)[C@H](Cc1ccc(O)cc1)NC(=O)[C@@H](CCC(=O)O)NC(=O)[C@@H](NC(=O)[C@H](Cc1ccccc1)NC(=O)[C@H](CCC(=O)O)NC(=O)C(C)(C)NC(=O)[C@H](CCC(N)=O)NC(=O)[C@H](C)NC(=O)[C@H](CCCCNC(=O)COCCOCCNC(=O)COCCOCCNC(=O)CC[C@H](NC(=O)CCCCCCCCCCCCCCCCCCC(=O)O)C(=O)O)NC(=O)[C@H](CCC(=O)O)NC(=O)[C@H](CC(=O)O)NC(=O)[C@H](CC(C)C)NC(=O)[C@](C)(CC(C)C)NC(=O)[C@@H](NC(=O)[C@H](CO)NC(=O)[C@H](Cc1cccnc1)NC(=O)[C@H](CC(=O)O)NC(=O)[C@H](CO)NC(=O)[C@@H](NC(=O)[C@](C)(Cc1ccccc1F)NC(=O)[C@@H](NC(=O)CNC(=O)[C@H](CCC(=O)O)NC(=O)C(C)(C)NC(=O)[C@@H](N)Cc1ccc(O)cc1)[C@@H](C)O)[C@@H](C)O)[C@@H](C)CC)[C@@H](C)CC)C(=O)N[C@@H](CCC(=O)O)C(=O)NCC(=O)NCC(=O)N1CCC[C@H]1C(=O)N[C@@H](CO)C(=O)N[C@@H](CO)C(=O)NCC(=O)N[C@@H](C)C(=O)N1CCC[C@H]1C(=O)N1CCC[C@H]1C(=O)N1CCC[C@H]1C(=O)N[C@@H](CO)C(N)=O [Example 181] (H-Y[Aib]EGT[αMePhe(2-F)]TSD[3Pal]SI[αMeL]LDEK([AEEA-AEEA-γGlu-C20 diacid])AQ[Aib]EFI[dE]YLIEGGPSSGAPPPS-NH2)	0.145	413	7.28	–	–
CC[C@H](C)[C@H](NC(=O)[C@H](CC(C)C)NC(=O)[C@H](Cc1ccc(O)cc1)NC(=O)[C@@H](CCC(=O)O)NC(=O)[C@@H](NC(=O)[C@H](Cc1ccccc1)NC(=O)[C@H](CCC(=O)O)NC(=O)C(C)(C)NC(=O)[C@H](CCC(N)=O)NC(=O)[C@H](C)NC(=O)[C@H](CCCCNC(=O)COCCOCCNC(=O)COCCOCCNC(=O)CC[C@H](NC(=O)CCCCCCCCCCCCCCCCCCC(=O)O)C(=O)O)NC(=O)[C@H](CCC(=O)O)NC(=O)[C@H](CC(=O)O)NC(=O)[C@H](CC(C)C)NC(=O)[C@](C)(CC(C)C)NC(=O)[C@@H](NC(=O)[C@H](CO)NC(=O)[C@H](Cc1ccncc1)NC(=O)[C@H](CC(=O)O)NC(=O)[C@H](CO)NC(=O)[C@@H](NC(=O)[C@](C)(Cc1ccccc1F)NC(=O)[C@@H](NC(=O)CNC(=O)[C@H](CCC(=O)O)NC(=O)C(C)(C)NC(=O)[C@@H](N)Cc1ccc(O)cc1)[C@@H](C)O)[C@@H](C)O)[C@@H](C)CC)[C@@H](C)CC)C(=O)N[C@@H](CCC(=O)O)C(=O)NCC(=O)NCC(=O)N1CCC[C@H]1C(=O)N[C@@H](CO)C(=O)N[C@@H](CO)C(=O)NCC(=O)N[C@@H](C)C(=O)N1CCC[C@H]1C(=O)N1CCC[C@H]1C(=O)N1CCC[C@H]1C(=O)N[C@@H](CO)C(N)=O [Example 182] (H-Y[Aib]EGT[αMePhe(2-F)]TSD[4Pal]SI[αMeL]LDEK([AEEA-AEEA-γGlu-C20 diacid])AQ[Aib]EFI[dE]YLIEGGPSSGAPPPS-NH2; N-terminus assumed)	0.0669	565	4.64	0.0442	–
CC[C@H](C)[C@H](NC(=O)[C@H](CC(C)C)NC(=O)[C@H](Cc1ccc(O)cc1)NC(=O)[C@@H](CCC(=O)O)NC(=O)[C@@H](NC(=O)[C@H](Cc1ccccc1)NC(=O)[C@H](CCC(=O)O)NC(=O)C(C)(C)NC(=O)[C@H](CCC(N)=O)NC(=O)[C@H](C)NC(=O)[C@H](CCCCNC(=O)COCCOCCNC(=O)COCCOCCNC(=O)CC[C@H](NC(=O)CCCCCCCCCCCCCCCCCCC(=O)O)C(=O)O)NC(=O)[C@H](CCC(=O)O)NC(=O)[C@H](CC(=O)O)NC(=O)[C@H](CC(C)C)NC(=O)[C@](C)(CC(C)C)NC(=O)[C@@H](NC(=O)[C@H](CO)NC(=O)[C@H](CC(C)C)NC(=O)[C@H](CC(=O)O)NC(=O)[C@H](CO)NC(=O)[C@@H](NC(=O)[C@](C)(Cc1ccccc1F)NC(=O)[C@@H](NC(=O)CNC(=O)[C@H](CCC(=O)O)NC(=O)C(C)(C)NC(=O)[C@@H](N)Cc1ccc(O)cc1)[C@@H](C)O)[C@@H](C)O)[C@@H](C)CC)[C@@H](C)CC)C(=O)N[C@@H](CCC(=O)O)C(=O)NCC(=O)NCC(=O)N1CCC[C@H]1C(=O)N[C@@H](CO)C(=O)N[C@@H](CO)C(=O)NCC(=O)N[C@@H](C)C(=O)N1CCC[C@H]1C(=O)N1CCC[C@H]1C(=O)N1CCC[C@H]1C(=O)N[C@@H](CO)C(N)=O [Example 183] (H-Y[Aib]EGT[αMePhe(2-F)]TSDLSI[αMeL]LDEK([AEEA-AEEA-γGlu-C20 diacid])AQ[Aib]EFI[dE]YLIEGGPSSGAPPPS-NH2)	0.0869	304	4.11	0.0615	–
CC[C@H](C)[C@H](NC(=O)[C@H](CC(C)C)NC(=O)[C@H](Cc1ccc(O)cc1)NC(=O)[C@@H](CCC(=O)O)NC(=O)[C@@H](NC(=O)[C@H](Cc1ccccc1)NC(=O)[C@H](CCC(=O)O)NC(=O)C(C)(C)NC(=O)[C@H](CCC(N)=O)NC(=O)[C@H](C)NC(=O)[C@H](CCCCNC(=O)COCCOCCNC(=O)COCCOCCNC(=O)CC[C@H](NC(=O)CCCCCCCCCCCCCCCCC(=O)O)C(=O)O)NC(=O)[C@H](CCC(=O)O)NC(=O)[C@H](CC(=O)O)NC(=O)[C@H](CC(C)C)NC(=O)[C@](C)(CC(C)C)NC(=O)[C@@H](NC(=O)[C@H](CO)NC(=O)[C@H](Cc1ccncc1)NC(=O)[C@H](CC(=O)O)NC(=O)[C@H](CO)NC(=O)[C@@H](NC(=O)[C@](C)(Cc1ccccc1F)NC(=O)[C@@H](NC(=O)CNC(=O)[C@H](CCC(=O)O)NC(=O)C(C)(C)NC(=O)[C@@H](N)Cc1ccc(O)cc1)[C@@H](C)O)[C@@H](C)O)[C@@H](C)CC)[C@@H](C)CC)C(=O)N[C@@H](CCC(=O)O)C(=O)NCC(=O)NCC(=O)N1CCC[C@H]1C(=O)N[C@@H](CO)C(=O)N[C@@H](CO)C(=O)NCC(=O)N[C@@H](C)C(=O)N1CCC[C@H]1C(=O)N1CCC[C@H]1C(=O)N1CCC[C@H]1C(=O)N[C@@H](CO)C(N)=O [Example 204] (H-Y[Aib]EGT[αMePhe(2-F)]TSD[4Pal]SI[αMeL]LDEK([AEEA-AEEA-γGlu-C18 diacid])AQ[Aib]EFI[dE]YLIEGGPSSGAPPPS-NH2)	0.0704	> 1150	–	0.0424	0.0654
